US20220313698A1, “MODULATORS OF CYSTIC FIBROSIS TRANSMEMBRANE CONDUCTANCE REGULATOR” (Vertex Pharmaceuticals Incorporated, priority 2019, published 2022)

What was measured:
[1] = target: T1, CFTR-mediated chloride transport (Homo sapiens, UniProt P13569); test: Corrector Assay B - membrane potential dye assay (enteroid cells); settings: for Corrector Assay B % activity: % of chloride transport of triple combination control (3 μM Compound A + 3 μM tezacaftor + 300 nM ivacaftor); for EC50: read-out: Corrector Assay B EC50, human intestinal enteroid cells, 18-24 h incubation, acute 10 μM forskolin + 300 nM ivacaftor;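 for all read-outs here: methyl oxonol membrane potential fluorescence followed over 15 min after switching to chloride-free buffer with forskolin, 100 µM IBMX and ivacaftor, in presence of CaCC blockers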
Protocol: Base medium (ADF+++) consisted of Advanced DMEM/Ham's F12, 2 mM Glutamax, 10 mM HEPES, 1 μg/ml penicillin/streptomycin.
Intestinal enteroid maintenance medium (IEMM) consisted of ADF+++, 1×B27 supplement, 1×N2 supplement, 1.25 mM N-acetyl cysteine, 10 mM Nicotinamide, 50 ng/mL hEGF, 10 nM Gastrin, 1 μg/mL hR-spondin-1, 100 ng/mL hNoggin, TGF-b type 1 inhibitor A-83-01, 100 μg/mL Primocin, 10 μM P38 MAPK inhibitor SB202190.
Bath 1 Buffer consisted of 1 mM MgCl2, 160 mM NaCl, 4.5 mM KCl, 10 mM HEPES, 10 mM Glucose, 2 mM CaCl2).
Chloride Free Buffer consisted of 1 mM Magnesium Gluconate, 2 mM Calcium Gluconate, 4.5 mM Potassium Gluconate, 160 mM Sodium Gluconate, 10 mM HEPES, 10 mM Glucose.
Bath 1 Dye Solution consisted of Bath 1 Buffer, 0.04% Pluronic F127, 20 μM Methyl Oxonol, 30 μM CaCCinh-A01, 30 μM Chicago Sky Blue.
Chloride Free Dye Solution consisted of Chloride Free Buffer, 0.04% Pluronic F127, 20 μM Methyl Oxonol, 30 μM CaCCinh-A01, 30 μM Chicago Sky Blue.
Chloride Free Dye Stimulation Solution consisted of Chloride Free Dye Solution, 10 μM forskolin, 100 μM IBMX, and 300 nM Ivacaftor.
Cells were recovered in cell recovery solution, collected by centrifugation at 650 rpm for 5 min at 4° C., resuspended in TryPLE and incubated for 5 min at 37° C. Cells were then collected by centrifugation at 650 rpm for 5 min at 4° C. and resuspended in IEMM containing 10 μM ROCK inhibitor (RI). The cell suspension was passed through a 40 μm cell strainer and resuspended at 1×10^6 cells/mL in IEMM containing 10 μM RI. Cells were seeded at 5000 cells/well into multi-well plates and incubated for overnight at 37° C., 95% humidity and 5% CO2 prior to assay.
Briefly, cells were washed 5 times in Bath 1 Buffer. Bath 1 Dye Solution was added and the cells were incubated for 25 min at room temperature. Following dye incubation, cells were washed 3 times in Chloride Free Dye Solution. Chloride transport was initiated by addition of Chloride Free Dye Stimulation Solution and the fluorescence signal was read for 15 min. The CFTR-mediated chloride transport for each condition was determined from the AUC of the fluorescence response to acute forskolin and 300 nM N-[2,4-bis(1,1-dimethylethyl)-5-hydroxyphenyl]-1,4-dihydro-4-oxoquinoline-3-carboxamide stimulation. Chloride transport was then expressed as a percentage of the chloride transport following treatment with 3 μM Compound A, 3 μM (R)-1-(2,2-difluorobenzo[d][1,3]dioxol-5-yl)-N-(1-(2,3-dihydroxypropyl)-6-fluoro-2-(1-hydroxy-2-methylpropan-2-yl)-1H-indol-5-yl)cyclopropanecarboxamide and 300 nM acute N-[2,4-bis(1,1-dimethylethyl)-5-hydroxyphenyl]-1,4-dihydro-4-oxoquinoline-3-carboxamide triple combination control (% Activity).

[2] = target: T1, CFTR-mediated chloride transport; test: Corrector Assay A - membrane potential dye assay (enteroid cells); settings: for Corrector Assay A % activity: % of chloride transport of triple combination control (1 μM (14S)-dispiro macrocycle + 3 μM tezacaftor + 300 nM ivacaftor); for EC50: read-out: Corrector Assay A EC50, human intestinal enteroid cells, 18-24 h incubation, acute 10 μM forskolin + 300 nM ivacaftor

Row | SMILES | Corrector Assay B % activity [1] | EC50 [1] | Corrector Assay A % activity [2] | EC50 [2]
1 | CC1(C)CC2CC(c3ccccc3)CNc3cccc(n3)S(=O)(=O)NC(=O)c3ccc(-n4ccc(OCCC5(C(F)(F)F)CC5)n4)nc3N1C2 (single isomer, unassigned) [Compound 390, 12,12-dimethyl-16-phenyl-8-(3-{2-[1-(trifluoromethyl)cyclopropyl]ethoxy}-1H-pyrazol-1-yl)-2λ^6-thia-3,9,11,18,23-pentaazatetracyclo[17.3.1.111,14.05,10]tetracosa-1(22),5,7,9,19(23),20-hexaene-2,2,4-trione] | +++ (+++ is >60%) | < 1000 nM | – | –
2 | CC(C)(C)c1ccc2c(n1)N1C[C@@H](CCC(c3ccc(C(=O)O)cc3)Nc3cccc(n3)S(=O)(=O)NC2=O)CC1(C)C (single isomer, unassigned) [Compound 291] | ++ (++ is 30-60%) | 1000 to 3000 nM | – | –
3 | CC1(C)C[C@@H]2CCC(c3ccccc3)Nc3cccc(n3)S(=O)(=O)NC(=O)c3cccnc3N1C2 (single isomer, unassigned) [Compound 288] | +++ (+++ is >60%) | 1000 to 3000 nM | – | –
4 | CC(C)(C)c1ccc2c(n1)N1C[C@@H](CCC(c3cncnc3)Nc3cccc(n3)S(=O)(=O)NC2=O)CC1(C)C (single isomer, unassigned) [Compound 298] | +++ (+++ is >60%) | < 1000 nM | – | –
5 | CC(C)(C)c1ccc2c(n1)N1C[C@@H](CCC(c3ccc(C(=O)O)cc3)Nc3cccc(n3)S(=O)(=O)NC2=O)CC1(C)C (single isomer, unassigned) [Compound 290] | ++ (++ is 30-60%) | 1000 to 3000 nM | – | –
6 | COc1cccc(-c2ccc3c(n2)N2C[C@@H](CC[C@@H](c4ccccn4)Nc4cccc(n4)S(=O)(=O)NC3=O)CC2(C)C)c1 [Compound 340] | – | – | ++ (++ is 30-60%) | 1000 to 3000 nM
7 | COc1cccc(-c2ccc3c(n2)N2C[C@@H](CC[C@H](c4ccccn4)Nc4cccc(n4)S(=O)(=O)NC3=O)CC2(C)C)n1 [Compound 337] | – | – | +++ (+++ is >60%) | < 1000 nM
8 | CN(C)Cc1ccnc([C@@H]2CC[C@@H]3CN(c4nc(C(C)(C)C)ccc4C(=O)NS(=O)(=O)c4cccc(n4)N2)C(C)(C)C3)c1 (single isomer, unassigned) [Compound 86] | – | – | ++ (++ is 30-60%) | < 1000 nM
9 | CC(C)(C)c1ccc2c(n1)N1C[C@@H](CCC(C(C)(C)C)Nc3cccc(n3)S(=O)(=O)NC2=O)CC1(C)C (single isomer, unassigned) [Compound 245] | – | – | ++ (++ is 30-60%) | < 1000 nM
10 | CC(C)(C)c1cccc(C2CC[C@@H]3CN(c4nc(C(C)(C)C)ccc4C(=O)NS(=O)(=O)c4cccc(n4)N2)C(C)(C)C3)c1 (single isomer, unassigned) [Compound 40] | – | – | ++ (++ is 30-60%) | < 1000 nM
11 | CC(C)(C)c1cccc(C2CC[C@@H]3CN(c4nc(C(C)(C)C)ccc4C(=O)NS(=O)(=O)c4cccc(n4)N2)C(C)(C)C3)n1 (single isomer, unassigned) [Compound 179] | – | – | ++ (++ is 30-60%) | < 1000 nM
12 | C=CCC1CC[C@@H]2CN(c3nc(C(C)(C)C)ccc3C(=O)NS(=O)(=O)c3cccc(n3)N1)C(C)(C)C2 (single isomer, unassigned) [Compound 35] | – | – | ++ (++ is 30-60%) | < 1000 nM
13 | CC(=O)NCc1cccc([C@H]2CC[C@@H]3CN(c4nc(C(C)(C)C)ccc4C(=O)NS(=O)(=O)c4cccc(n4)N2)C(C)(C)C3)n1 [Compound 100, N-({6-[(14S,17R)-8-tert-Butyl-12,12-dimethyl-2,2,4-trioxo-2λ^6-thia-3,9,11,18,23-pentaazatetracyclo[17.3.1.111,14.05,10]tetracosa-1(22),5,7,9,19(23),20-hexaen-17-yl]pyridin-2-yl}methyl)acetamide] | – | – | +++ (+++ is >60%) | < 1000 nM
14 | CC(C)(C)c1ccc2c(n1)N1C[C@@H](CCC(C3CCNCC3)Nc3cccc(n3)S(=O)(=O)NC2=O)CC1(C)C (single isomer, unassigned) [Compound 248] | – | – | ++ (++ is 30-60%) | > 3000 nM
15 | CC(C)(C)c1ccc2c(n1)N1C[C@@H](CCC(CC(O)CO)Nc3cccc(n3)S(=O)(=O)NC2=O)CC1(C)C (single isomer, unassigned) [Compound 30] | – | – | ++ (++ is 30-60%) | < 1000 nM
16 | CC(C)(C)c1ccc2c(n1)N1C[C@@H](CCC(CCC(C3CC3)C3CC3)Nc3cccc(n3)S(=O)(=O)NC2=O)CC1(C)C (single isomer, unassigned) [Compound 52] | – | – | ++ (++ is 30-60%) | < 1000 nM
17 | CC(C)(C)c1ccc2c(n1)N1C[C@@H](CCC(CCCC(=O)O)Nc3cccc(n3)S(=O)(=O)NC2=O)CC1(C)C (stereo partly drawn) [Compound 19, 4-[(14S)-8-tert-Butyl-12,12-dimethyl-2,2,4-trioxo-2λ^6-thia-3,9,11,18,23-pentaazatetracyclo[17.3.1.111,14.05,10]tetracosa-1(23),5(10),6,8,19,21-hexaen-17-yl]butanoic acid] | – | – | +++ (+++ is >60%) | 1000 to 3000 nM
18 | CC(C)(C)c1ccc2c(n1)N1C[C@@H](CC[C@H](c3cccc(C4=CCNCC4)n3)Nc3cccc(n3)S(=O)(=O)NC2=O)CC1(C)C [Compound 142, (14S,17R)-8-tert-Butyl-12,12-dimethyl-17-{1′,2′,3′,6′-tetrahydro-[2,4′-bipyridine]-6-yl}-2λ^6-thia-3,9,11,18,23-pentaazatetracyclo [17.3.1.111,14.05,10]tetracosa-1(23),5(10),6,8,19,21-hexaene-2,2,4-trione] | – | – | +++ (+++ is >60%) | < 1000 nM

Now from value to molecule:

Row | Corrector Assay B % activity [1] | EC50 [1] | Corrector Assay A % activity [2] | EC50 [2] | SMILES
19 | +++ (+++ is >60%) | < 1000 nM | – | – | CC1(C)C[C@@H]2CCCN(CCC#N)c3cccc(n3)S(=O)(=O)NC(=O)c3ccc(-n4ccc(OCCC5(C(F)(F)F)CC5)n4)nc3N1C2 [Compound 377]
20 | ++ (++ is 30-60%) | < 1000 nM | – | – | Cn1cnnc1CN1CCC[C@@H]2CN(c3nc(-n4ccc(OCCC5(C(F)(F)F)CC5)n4)ccc3C(=O)NS(=O)(=O)c3cccc1n3)C(C)(C)C2 [Compound 373]
21 | +++ (+++ is >60%) | < 1000 nM | – | – | CC1(C)C[C@@H]2CCCN(C[C@@H](O)CO)c3cccc(n3)S(=O)(=O)NC(=O)c3ccc(-n4ccc(OCCC5(C(F)(F)F)CC5)n4)nc3N1C2 (single isomer, unassigned) [Compound 379]
22 | ++ (++ is 30-60%) | < 1000 nM | – | – | CC1(C)C[C@@H]2CCCN(CCCCCC#N)c3cccc(n3)S(=O)(=O)NC(=O)c3ccc(-n4ccc(OCCC5(C(F)(F)F)CC5)n4)nc3N1C2 [Compound 369]
23 | – | – | +++ (+++ is >60%) | < 1000 nM | CC(C)(C)CCc1ccc2c(n1)N1C[C@@H](CC[C@H](c3ccccn3)Nc3cccc(n3)S(=O)(=O)NC2=O)CC1(C)C [Compound 105, (14S,17R)-8-(3,3-dimethylbutyl)-12,12-dimethyl-17-(pyridin-2-yl)-2λ^6-thia-3,9,11,18,23-pentaazatetracyclo[17.3.1.111,14.05,10]tetracosa-1(22),5,7,9,19(23),20-hexaene-2,2,4-trione]
24 | – | – | +++ (+++ is >60%) | < 1000 nM | CC(C)(C)c1ccc2c(n1)N1C[C@@H](CCC(c3ccc(CN)cn3)Nc3cccc(n3)S(=O)(=O)NC2=O)CC1(C)C (stereo partly shown) [Compound 196]
25 | – | – | +++ (+++ is >60%) | < 1000 nM | CC(C)(C)c1ccc2c(n1)N1C[C@@H](CCC(c3cc(CN)ccn3)Nc3cccc(n3)S(=O)(=O)NC2=O)CC1(C)C (single isomer, unassigned) [Compound 115]
26 | – | – | ++ (++ is 30-60%) | < 1000 nM | CC(C)(C)c1ccc2c(n1)N1C[C@@H](CCC(c3cc(Br)ccn3)Nc3cccc(n3)S(=O)(=O)NC2=O)CC1(C)C (single isomer, unassigned) [Compound 47]
27 | – | – | + (+ is <30%) | > 3000 nM | CC(C)(C)c1ccc2c(n1)N1C[C@@H](CC[C@@H](C3CCN(CCC(F)(F)F)CC3)Nc3cccc(n3)S(=O)(=O)NC2=O)CC1(C)C (single isomer, unassigned) [Compound 239]
28 | – | – | +++ (+++ is >60%) | 1000 to 3000 nM | CC(C)(C)c1ccc2c(n1)N1C[C@@H](CC[C@@H](c3ncccn3)Nc3cccc(n3)S(=O)(=O)NC2=O)CC1(C)C (single isomer, unassigned) [Compound 206]
29 | – | – | + (+ is <30%) | < 1000 nM | CN1c2cccc(n2)S(=O)(=O)NC(=O)c2ccc(C(C)(C)C)nc2N2C[C@@H](CCC1c1ccccc1)CC2(C)C (single isomer, unassigned) [Compound 261]
30 | – | – | ++ (++ is 30-60%) | < 1000 nM | CC(C)(C)c1ccc2c(n1)N1C[C@@H](CCC(c3ncccc3Cl)Nc3cccc(n3)S(=O)(=O)NC2=O)CC1(C)C (single isomer, unassigned) [Compound 65]
31 | – | – | +++ (+++ is >60%) | < 1000 nM | CC(C)(C)c1ccc2c(n1)N1C[C@@H](CCC(c3cc(Cl)ccn3)Nc3cccc(n3)S(=O)(=O)NC2=O)CC1(C)C (single isomer, unassigned) [Compound 127]
32 | – | – | ++ (++ is 30-60%) | < 1000 nM | CC(C)(C)c1ccc2c(n1)N1C[C@@H](CC[C@@H](c3cccc(C(F)(F)F)n3)Nc3cccc(n3)S(=O)(=O)NC2=O)CC1(C)C (single isomer, unassigned) [Compound 95]
